This is an account of results in ChEMBL document CHEMBL3351773, “Effect of p-aminophenols on tyrosinase activity” (Bioorg Med Chem, 2014).

Activity calls are given as the source filed them. The calls are words filed in the database; no cut-off is given here. Where only a bound is given, the exact number is not on record here.

Experiment [1] addresses T1, Tyrosinase (Agaricus bisporus) (UniProt O42713).
T1 sequence (whole entry): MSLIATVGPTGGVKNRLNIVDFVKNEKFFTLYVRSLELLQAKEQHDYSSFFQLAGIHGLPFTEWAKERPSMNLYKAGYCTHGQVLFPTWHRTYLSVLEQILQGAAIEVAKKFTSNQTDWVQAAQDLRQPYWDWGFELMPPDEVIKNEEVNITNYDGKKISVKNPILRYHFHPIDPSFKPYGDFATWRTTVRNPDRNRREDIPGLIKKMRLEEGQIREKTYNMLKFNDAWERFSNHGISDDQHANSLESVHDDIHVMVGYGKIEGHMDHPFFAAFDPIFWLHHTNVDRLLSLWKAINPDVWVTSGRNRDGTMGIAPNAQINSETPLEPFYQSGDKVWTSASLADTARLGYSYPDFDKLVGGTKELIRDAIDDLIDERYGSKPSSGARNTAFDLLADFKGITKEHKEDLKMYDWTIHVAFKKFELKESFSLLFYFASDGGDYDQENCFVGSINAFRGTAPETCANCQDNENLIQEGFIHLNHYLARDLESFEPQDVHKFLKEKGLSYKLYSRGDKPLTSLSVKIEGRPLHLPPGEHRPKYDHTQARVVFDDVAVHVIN
Nature of the experiment: Non-competitive inhibition of mushroom tyrosinase using L-DOPA as substrate by Lineweaver-Burk double reciprocal plot method.

The target of experiment [2] is T1, Tyrosinase (Agaricus bisporus). Description: (§1) Inhibition of mushroom tyrosinase using L-tyrosine as substrate by spectrophotometry.
Experiment [3] has as its target T2, Tyrosinase (Agaricus bisporus, UniProt O42713).
T2 sequence (O42713 whole entry): T1 sequence (whole entry)
The experiment is described as §1.

Experiment [4] has as its target T1, Tyrosinase (Agaricus bisporus). Description: Non-competitive inhibition of mushroom tyrosinase using L-tyrosine as substrate by Lineweaver-Burk double reciprocal plot method.
Experiment [5] shares this target. Description: (§2) Inhibition of mushroom tyrosinase using L-DOPA as substrate by spectrophotometry relative to control.
Experiment [6] deals with T2, Tyrosinase. The experiment is described as §2.
Experiment [7] addresses T1, Tyrosinase (Agaricus bisporus). Description: Inhibition of mushroom tyrosinase using L-tyrosine as substrate at 200 uM by spectrophotometry relative to control.
Experiment [8] shares this target. Description: Inhibition of mushroom tyrosinase using L-tyrosine as substrate at 100 uM by spectrophotometry relative to control.
Experiment [9] shares this target. Nature of the experiment: Inhibition of mushroom tyrosinase using L-DOPA as substrate at 200 uM by spectrophotometry relative to control.
Experiment [10] has the same target. Nature of the experiment: Inhibition of mushroom tyrosinase using L-DOPA as substrate at 100 uM by spectrophotometry relative to control.

One may read the inhibition as the drop in the measured response relative to a control, in per cent. In general, IC50 refers to the concentration that gives 50% inhibition. Low values mean greater potency, high ones weaker potency. In the case of `CCCCCCCCCCNc1ccc(O)cc1`, the inhibition result in [1] and in experiment [4] was “Active” each time. The inhibition result in experiment [2] and in experiment [5] was “Dose-dependent effect” in each case. Besides, the IC50 at Tyrosinase [3] stood at 5.7 µM; on Tyrosinase [6] it was 30.1 µM.
Turning to `CCCCCCCCCCCCNc1ccc(O)cc1`, the inhibition entry in [1] and in experiment [4] was “Active” each time. Further, the inhibition in experiment [7] is 27%; in experiment [8], 23%; in experiment [2] it was “Dose-dependent effect”; in experiment [9], 45%; in experiment [10], 25%; in experiment [5], “Dose-dependent effect”. The 50% inhibitory concentration (IC50) against Tyrosinase [3] and against Tyrosinase [6] was more than 200 µM throughout.
